From PubChem BioAssay AID1845200 (Molecular Pharmacology Branch, DTP, NCI, 2023)

System: ASPS-1 complex tumor spheroids, viability
Experiment: Anticancer human tumor ASPS-1 cell line growth inhibition;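 also: spheroids exposed to agents for 7 days after 3 days of growth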;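 as to viability, T/C: 100% = DMSO vehicle treated spheroids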
Settings: for IC50: curve of first compound; for viability, T/C: stronger effect = lower value; active = viability on the fitted dose curve at most 10% of control; inactive = the rest
In short: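 Complex spheroids of malignant cells with endothelial cells and mesenchymal stem cells; agents alone or combined, from near clinical Cmax (or 10 microM if unknown) down in half-log steps, 0.25% DMSO final.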

[1] = second compound 0.003 µM, first compound 0.0316 µM
[2] = second compound 0.003 µM, first compound 0.1 µM
[3] = second compound 0.003 µM, first compound 0.316 µM
[4] = second compound 0.003 µM, first compound 1 µM
[5] = second compound 0.003 µM, first compound 3.16 µM
[6] = second compound 0.003 µM, first compound 10 µM
[7] = second compound 0.00949 µM, first compound 0.0316 µM
[8] = second compound 0.00949 µM, first compound 0.1 µM
[9] = second compound 0.00949 µM, first compound 0.316 µM
[10] = second compound 0.00949 µM, first compound 1 µM
[11] = second compound 0.00949 µM, first compound 3.16 µM
[12] = second compound 0.00949 µM, first compound 10 µM
[13] = second compound 0.03 µM, first compound 0.0316 µM
[14] = second compound 0.03 µM, first compound 0.1 µM
[15] = second compound 0.03 µM, first compound 0.316 µM
[16] = second compound 0.03 µM, first compound 1 µM
[17] = second compound 0.03 µM, first compound 3.16 µM
[18] = second compound 0.03 µM, first compound 10 µM
[19] = second compound 0.0949 µM, first compound 0.0316 µM
[20] = second compound 0.0949 µM, first compound 0.1 µM
[21] = second compound 0.0949 µM, first compound 0.316 µM
[22] = second compound 0.0949 µM, first compound 1 µM
[23] = second compound 0.0949 µM, first compound 3.16 µM
[24] = second compound 0.0949 µM, first compound 10 µM
[25] = second compound 0.3 µM, first compound 0.0316 µM
[26] = second compound 0.3 µM, first compound 0.1 µM
[27] = second compound 0.3 µM, first compound 0.316 µM
[28] = second compound 0.3 µM, first compound 1 µM
[29] = second compound 0.3 µM, first compound 3.16 µM
[30] = second compound 0.3 µM, first compound 10 µM
[31] = second compound 30 pM, first compound 0.00949 µM
[32] = second compound 30 pM, first compound 0.03 µM
[33] = second compound 30 pM, first compound 0.0949 µM
[34] = second compound 30 pM, first compound 0.3 µM
[35] = second compound 30 pM, first compound 0.949 µM
[36] = second compound 30 pM, first compound 3 µM
[37] = second compound 94.9 pM, first compound 0.00949 µM
[38] = second compound 94.9 pM, first compound 0.03 µM
[39] = second compound 94.9 pM, first compound 0.0949 µM
[40] = second compound 94.9 pM, first compound 0.3 µM
[41] = second compound 94.9 pM, first compound 0.949 µM
[42] = second compound 94.9 pM, first compound 3 µM
[43] = second compound 0.0003 µM, first compound 0.00949 µM
[44] = second compound 0.0003 µM, first compound 0.03 µM
[45] = second compound 0.0003 µM, first compound 0.0949 µM
[46] = second compound 0.0003 µM, first compound 0.3 µM
[47] = second compound 0.0003 µM, first compound 0.949 µM
[48] = second compound 0.0003 µM, first compound 3 µM
[49] = second compound 0.000949 µM, first compound 0.00949 µM
[50] = second compound 0.000949 µM, first compound 0.03 µM
[51] = second compound 0.000949 µM, first compound 0.0949 µM
[52] = second compound 0.000949 µM, first compound 0.3 µM
[53] = second compound 0.000949 µM, first compound 0.949 µM
[54] = second compound 0.000949 µM, first compound 3 µM
[55] = second compound 0.003 µM, first compound 0.00949 µM
[56] = second compound 0.003 µM, first compound 0.03 µM
[57] = second compound 0.003 µM, first compound 0.0949 µM
[58] = second compound 0.003 µM, first compound 0.3 µM
[59] = second compound 0.003 µM, first compound 0.949 µM
[60] = second compound 0.003 µM, first compound 3 µM

CC(C)n1c(=O)n(C)c2cnc3cc(F)c(-c4ccc(OCCCN5CCCCC5)nc4)cc3c21 + CC[C@@]1(O)C(=O)OCc2c1cc1n(c2=O)Cc2cc3c(CN(C)C)c(O)ccc3nc2-1
188 nM: IC50 (second compound 0.3 µM)
161 nM: IC50 (second compound 0.0949 µM)
inactive: viability, T/C [1] 99.3% | viability, T/C [2] 99.6% | viability, T/C [3] 108% | viability, T/C [4] 98% | viability, T/C [5] 82.9% | viability, T/C [6] 32.4% | viability, T/C [7] 82.9% | viability, T/C [8] 69.2% | viability, T/C [9] 71% | viability, T/C [10] 65.6% | viability, T/C [11] 67% | viability, T/C [12] 30.6% | viability, T/C [13] 61.1% | viability, T/C [14] 53% | viability, T/C [15] 48% | viability, T/C [16] 31.3% | viability, T/C [17] 33.2% | viability, T/C [18] 27.1% | viability, T/C [19] 64.3% | viability, T/C [20] 54.7% | viability, T/C [21] 41.8% | viability, T/C [22] 21.9% | viability, T/C [23] 22.4% | viability, T/C [24] 26.1% | viability, T/C [25] 62.9% | viability, T/C [26] 60.6% | viability, T/C [27] 40.9% | viability, T/C [28] 22% | viability, T/C [29] 20.9% | viability, T/C [30] 24.2%
184 nM: IC50 (second compound 0.03 µM)
6680 nM: IC50 (second compound 0.003 µM)
5200 nM: IC50 (second compound 0.00949 µM)

COc1ccc([C@@H](O)c2cc(-c3ncnc4cc(N5CCOCC5)ccc34)c(F)cc2Cl)nn1 + CC[C@@]1(O)C(=O)OCc2c1cc1n(c2=O)Cc2cc3c(CN(C)C)c(O)ccc3nc2-1
8870 nM: IC50 (second compound 0.003 µM)
3020 nM: IC50 (second compound 0.03 µM)
inactive: viability, T/C [1] 110% | viability, T/C [2] 106% | viability, T/C [3] 101% | viability, T/C [4] 98.1% | viability, T/C [5] 80.3% | viability, T/C [6] 46.1% | viability, T/C [7] 104% | viability, T/C [8] 104% | viability, T/C [9] 101% | viability, T/C [10] 90.2% | viability, T/C [11] 66.6% | viability, T/C [12] 41.1% | viability, T/C [13] 82% | viability, T/C [14] 87.9% | viability, T/C [15] 82.8% | viability, T/C [16] 73.8% | viability, T/C [17] 49.1% | viability, T/C [18] 31.9% | viability, T/C [19] 56.1% | viability, T/C [20] 54.7% | viability, T/C [21] 50.6% | viability, T/C [22] 31.4% | viability, T/C [23] 22.7% | viability, T/C [24] 26.1% | viability, T/C [25] 62.5% | viability, T/C [26] 58.4% | viability, T/C [27] 45.7% | viability, T/C [28] 32.4% | viability, T/C [29] 23.9% | viability, T/C [30] 16.4%
214 nM: IC50 (second compound 0.3 µM)
6690 nM: IC50 (second compound 0.00949 µM)
330 nM: IC50 (second compound 0.0949 µM)

CNCc1ccc(-c2cc(-c3nc(-c4ccc(S(=O)(=O)C(C)C)cc4)cnc3N)on2)cc1 + COc1cc2c(cc1O)CCNC21CSC2c3c(OC(C)=O)c(C)c4c(c3C(COC1=O)N1C(O)C3Cc5cc(C)c(OC)c(O)c5C(C21)N3C)OCO4
active: viability, T/C [48] 5.83% | viability, T/C [54] 1.09% | viability, T/C [58] 2.85% | viability, T/C [59] 0.66% | viability, T/C [60] 0.65%
552 nM: IC50 (second compound 0.0003 µM)
922 nM: IC50 (second compound 30 pM)
857 nM: IC50 (second compound 94.9 pM)
< 9.49 nM: IC50 (second compound 0.003 µM)
185 nM: IC50 (second compound 0.000949 µM)
inactive: viability, T/C [31] 109% | viability, T/C [32] 104% | viability, T/C [33] 105% | viability, T/C [34] 74.3% | viability, T/C [35] 51.9% | viability, T/C [36] 14.9% | viability, T/C [37] 106% | viability, T/C [38] 108% | viability, T/C [39] 108% | viability, T/C [40] 80.8% | viability, T/C [41] 48.3% | viability, T/C [42] 9.57% | viability, T/C [43] 106% | viability, T/C [44] 111% | viability, T/C [45] 102% | viability, T/C [46] 66.4% | viability, T/C [47] 34.7% | viability, T/C [49] 85.8% | viability, T/C [50] 83% | viability, T/C [51] 64.9% | viability, T/C [52] 36.1% | viability, T/C [53] 20.2% | viability, T/C [55] 16.9% | viability, T/C [56] 24.3% | viability, T/C [57] 15.2%

Cn1ncnc1[C@H]1c2n[nH]c(=O)c3cc(F)cc(c23)N[C@@H]1c1ccc(F)cc1 + COc1cc2c(cc1O)CCNC21CSC2c3c(OC(C)=O)c(C)c4c(c3C(COC1=O)N1C(O)C3Cc5cc(C)c(OC)c(O)c5C(C21)N3C)OCO4
inactive: viability, T/C [31] 102% | viability, T/C [32] 93.8% | viability, T/C [33] 101% | viability, T/C [34] 101% | viability, T/C [35] 89.3% | viability, T/C [36] 62.8% | viability, T/C [37] 97.3% | viability, T/C [38] 97.2% | viability, T/C [39] 98% | viability, T/C [40] 94% | viability, T/C [41] 88.8% | viability, T/C [42] 57.5% | viability, T/C [43] 86% | viability, T/C [44] 89.8% | viability, T/C [45] 85.2% | viability, T/C [46] 83.3% | viability, T/C [47] 75.4% | viability, T/C [48] 40.9% | viability, T/C [49] 70.3% | viability, T/C [50] 63.5% | viability, T/C [51] 56.7% | viability, T/C [52] 59.7% | viability, T/C [53] 45.1% | viability, T/C [54] 28.4% | viability, T/C [55] 21.5% | viability, T/C [56] 21.8% | viability, T/C [57] 19.4% | viability, T/C [58] 16.6% | viability, T/C [59] 13.3%
2230 nM: IC50 (second compound 0.0003 µM)
562 nM: IC50 (second compound 0.000949 µM)
active: viability, T/C [60] 4.87%
> 3000 nM: IC50 (second compound 30 pM) | IC50 (second compound 94.9 pM)
< 9.49 nM: IC50 (second compound 0.003 µM)

O=C(c1cc(Cc2n[nH]c(=O)c3ccccc23)ccc1F)N1CCN(C(=O)C2CC2)CC1 + COc1cc2c(cc1O)CCNC21CSC2c3c(OC(C)=O)c(C)c4c(c3C(COC1=O)N1C(O)C3Cc5cc(C)c(OC)c(O)c5C(C21)N3C)OCO4
inactive: viability, T/C [33] 114% | viability, T/C [34] 112% | viability, T/C [35] 105% | viability, T/C [36] 107% | viability, T/C (second compound 30 pM, first compound 9.49 µM) 106% | viability, T/C (second compound 30 pM, first compound 30 µM) 42.2% | viability, T/C [39] 103% | viability, T/C [40] 103% | viability, T/C [41] 108% | viability, T/C [42] 101% | viability, T/C (second compound 94.9 pM, first compound 9.49 µM) 98.6% | viability, T/C (second compound 94.9 pM, first compound 30 µM) 32.5% | viability, T/C [45] 97.8% | viability, T/C [46] 106% | viability, T/C [47] 102% | viability, T/C [48] 98.5% | viability, T/C (second compound 0.0003 µM, first compound 9.49 µM) 60.3% | viability, T/C (second compound 0.0003 µM, first compound 30 µM) 22.9% | viability, T/C [51] 73% | viability, T/C [52] 75.1% | viability, T/C [53] 59.5% | viability, T/C [54] 45.3% | viability, T/C (second compound 0.000949 µM, first compound 9.49 µM) 21.5% | viability, T/C [57] 21.6% | viability, T/C [58] 22.4% | viability, T/C [59] 17.4% | viability, T/C [60] 12.7%
22100 nM: IC50 (second compound 94.9 pM)
26000 nM: IC50 (second compound 30 pM)
< 94.9 nM: IC50 (second compound 0.003 µM)
13000 nM: IC50 (second compound 0.0003 µM)
active: viability, T/C (second compound 0.000949 µM, first compound 30 µM) 4.17% | viability, T/C (second compound 0.003 µM, first compound 9.49 µM) 3.59% | viability, T/C (second compound 0.003 µM, first compound 30 µM) 1.41%
2080 nM: IC50 (second compound 0.000949 µM)
